Data reported in US10821080B2, “Microencapsulation process with solvent and salt” (Evonik Corporation, priority 2008, dated 2020).

Assay: Equilibrium/saturation study of solvent solubility in PVA solutions with increasing salt concentration
Assay type: physicochemical
Procedure: An equilibrium/saturation study was performed to measure solvent solubilities in PVA solutions in increasing salt concentration levels. The saturation solubility in weight % of ethyl acetate and methylene chloride were individually tested with varying sodium chloride weight % in a 2% PVA aqueous solution. […] At about 15 weight % sodium chloride contention, the PVA began to salt out of the solution.

- saturation solubility in weight % as the sodium chloride content was increased: decreased
SMILES: CCOC(C)=O [ethyl acetate]
